Measurements from US20110166196A1, “TREATMENT AND PROPHYLAXIS OF EPILEPSY AND FEBRILE SEIZURES” (priority 2008, published 2011).

Assays:
[1] = system: excitatory synapses onto CA1 hippocampal interneurons; assay: HFS-induced long-term depression (LTD) of EPSCs, whole-cell recording in hippocampal slices; type: cell-based, rat
Description: (§1) The basic methods have been detailed previously (McMahon and Kauer, 1997). Sprague-Dawley rats (15-22 days old) were used in the majority of experiments. In addition, we used TRPV1^−/− mice (Caterina et al., 2000) and wild-type C57BL/6 mice aged between 15 and 21 days (Jackson Laboratory). The TRPV1^−/− mice we used have been backcrossed at least 10 times onto a C57BL/6 background and were obtained from homozygous breeding pairs. Control mice were therefore not littermates but were age-matched, wild-type C57BL/6 animals received from the same supplier in the same shipment. All animal protocols were approved by the Brown University Institutional Animal Care and Use Committee. For mouse experiments, only one brain slice per mouse was used for each experiment, so that reported ‘n’ numbers represent the number of animals. Animals were anaesthetized using halothane or isoflurane and quickly decapitated. The brain was rapidly removed and 300 μm thick coronal slices prepared and stored for at least one hour submerged on a net in artificial cerebrospinal fluid (ACSF) containing in mM: 119 NaCl, 26 NaHCO3, 2.5 KCl, 1.0 NaH2PO4, 2.5 CaCl2, 1.3 MgSO4 and 11 dextrose, saturated with 95% O2/5% CO2 (pH 7.4). Slices were then transferred to a submerged recording chamber and bathed in oxygenated ACSF (28-32° C.) containing elevated divalent cations to reduce epileptiform activity (4 mM CaCl2 and 4 mM MgCl2, replacing MgSO4). A surgical cut was made between the CA3 and CA1 regions. The storage of slices submerged on a net rather than in an interface chamber on filter paper may be important in maintaining slice health and improving the likelihood of observing LTD.
(§2) Slices were continuously perfused with ACSF warmed to 28-32° C. at a flow rate of 1-2 ml/min. Picrotoxin (100 μM) and D-AP5 (50 μM) were added to block GABAA receptor- and NMDAR-mediated synaptic transmission. Whole-cell patch clamp recordings were made from interneurons identified visually in the CA1 stratum radiatum of the hippocampus. […] Patch pipettes were filled with internal recording solution containing in mM: 117 cesium gluconate, 2.8 NaCl, 5 MgCl2, 20 HEPES, 2 ATP-Na^+, 0.3 GTP-Na^+ and 0.6 EGTA. In some experiments 2 μM capsazepine, 140 nM baicalein, or 250 μM GDPβS were also included in the intracellular patch pipette solution. In experiments with BAPTA-containing patch electrodes, EGTA was omitted from the intracellular solution and 25 or 40 mM BAPTA replaced a corresponding amount of cesium gluconate. EPSCs were stimulated at 0.1 Hz (100 μsec) using a bipolar stainless steel stimulating electrode placed in stratum radiatum at least 200 μm from the recorded cell. CA1 interneurons were voltage clamped at −65 mV (not corrected for the liquid junction potential, of ˜10 mV), and EPSCs were evoked by paired pulses with an interval of 50 msec (stimulus intensity typically 50-400 μA). In early experiments, we measured rectification ratios of EPSCs evoked at +40 mV/−60 mV in the presence of 50 μM D-AP5, measured at the time of peak inward synaptic current seen at −70 mV (Lei and McBain, 2004).
High-frequency stimulation was used to induce LTD (HFS; two 1 sec trains at 100 Hz, inter-train interval 20 sec, at 1.5 times test current intensity) with the neuron held in current-clamp mode, so that the HFS trains were delivered with the membrane potential free to vary. Receptor antagonists were added directly to the ACSF at known concentrations for at least 10 minutes prior to HFS. Control experiments were interleaved with those experiments using receptor antagonists or involving slices from TRPVl^−/− mice. The cell input resistance and series resistance were monitored throughout each experiment; cells were discarded if these values changed by more than 10% during the experiment.

[2] = system: synapses between CA3 and CA1 pyramidal cells; assay: Field EPSP recordings in hippocampal slices; type: cell-based, rat; conditions: 100 nM 12-(S)-HPETE; P=0.83, n=5
Protocol: The maximal initial slope of fEPSPs was calculated using a LabVIEW-based program (National Instruments). The peak amplitude of each EPSC was measured by comparing a 10 msec time period immediately prior to the stimulus with the peak of the EPSC using this program as well. Occasionally polysynaptic responses were evoked, and in these cases, only the initial monosynaptic event was measured. To positively identify LTD, EPSCs measured every 10 seconds were averaged in 1 minute intervals. EPSC amplitude values were normalized to control pre-HFS EPSC amplitude values (baseline period of at least 5 minutes prior to HFS) and subjected to analysis of variance (ANOVA) repeated measures analysis with a post-hoc Dunnett's test (GraphPad Prism, Version 4). […] EPSC amplitude values 15 to 20 minutes post-HFS were compared between control LTD experiments and those carried out either in transgenic TRPV1^−/− mice, or in the presence of drug using a t-test (unpaired, two-tailed, with Welch's correction if the variances between the groups were unequal). To calculate the effects of capsaicin, 12-(S)-HPETE or WIN 55,212-2 application on basal excitatory glutamatergic transmission, normalized EPSC amplitudes or fEPSP slopes were averaged in the final 5 minutes of drug application and compared with EPSCs/EPSPs 5 minutes prior to drug application. In addition, to measure capsaicin's effects on holding current, the peak change in holding current was measured during bath application of 3 μM capsaicin. The n-values reported refer to the number of slices. All combined data are expressed as mean±the standard error of the mean (s.e.m.).

[3] = system: excitatory synapses onto CA1 hippocampal interneurons; assay: Synaptic failure analysis using minimal stimulation; type: cell-based, rat; conditions: 12-(S)-HPETE 100 nM; pre-application 35.2±1.9%; n=6
Protocol: as §2, with “CA1 interneurons were voltage clamped at −65 mV (not corrected for the liquid junction potential, of ˜10 mV), and EPSCs were evoked by paired pulses with an interval of 50 msec (stimulus intensity typically 50-400 μA).” left out

[4] = system: excitatory synapses on interneurons; assay: Drug-induced depression of EPSC amplitudes in slices from TRPV1-/- and C57BL/6 wild-type mice; type: cell-based, mouse; conditions: 12-(S)-HPETE 100 nM; TRPV1−/− mice; P=0.33, n=6
Description: The basic methods have been detailed previously (McMahon and Kauer, 1997). Sprague-Dawley rats (15-22 days old) were used in the majority of experiments. In addition, we used TRPV1^−/− mice (Caterina et al., 2000) and wild-type C57BL/6 mice aged between 15 and 21 days (Jackson Laboratory). The TRPV1^−/− mice we used have been backcrossed at least 10 times onto a C57BL/6 background and were obtained from homozygous breeding pairs. Control mice were therefore not littermates but were age-matched, wild-type C57BL/6 animals received from the same supplier in the same shipment. All animal protocols were approved by the Brown University Institutional Animal Care and Use Committee. For mouse experiments, only one brain slice per mouse was used for each experiment, so that reported ‘n’ numbers represent the number of animals. Animals were anaesthetized using halothane or isoflurane and quickly decapitated. […]
Slices were continuously perfused with ACSF warmed to 28-32° C. at a flow rate of 1-2 ml/min. […] EPSCs were stimulated at 0.1 Hz (100 μsec) using a bipolar stainless steel stimulating electrode placed in stratum radiatum at least 200 μm from the recorded cell. […] In early experiments, we measured rectification ratios of EPSCs evoked at +40 mV/−60 mV in the presence of 50 μM D-AP5, measured at the time of peak inward synaptic current seen at −70 mV (Lei and McBain, 2004).
The maximal initial slope of fEPSPs was calculated using a LabVIEW-based program (National Instruments). The peak amplitude of each EPSC was measured by comparing a 10 msec time period immediately prior to the stimulus with the peak of the EPSC using this program as well. Occasionally polysynaptic responses were evoked, and in these cases, only the initial monosynaptic event was measured. To positively identify LTD, EPSCs measured every 10 seconds were averaged in 1 minute intervals. […]

[5] = system: excitatory synapses onto CA1 hippocampal interneurons; assay: Drug-induced depression of EPSC amplitudes, whole-cell recording in hippocampal slices; type: cell-based, rat
Description: as §1, §2
The maximal initial slope of fEPSPs was calculated using a LabVIEW-based program (National Instruments). The peak amplitude of each EPSC was measured by comparing a 10 msec time period immediately prior to the stimulus with the peak of the EPSC using this program as well. Occasionally polysynaptic responses were evoked, and in these cases, only the initial monosynaptic event was measured. To positively identify LTD, EPSCs measured every 10 seconds were averaged in 1 minute intervals. EPSC amplitude values were normalized to control pre-HFS EPSC amplitude values (baseline period of at least 5 minutes prior to HFS) and subjected to analysis of variance (ANOVA) repeated measures analysis with a post-hoc Dunnett's test (GraphPad Prism, Version 4).

TRPV1 channels = biological target: T1, TRPV1 channels (Mus musculus, UniProt Q704Y3); assay: TRPV1 agonist-evoked inward current and depolarization in CA1 pyramidal neurons; type: cell-based; conditions: 12-(S)-HPETE 100 nM bath-applied
T1 construct: whole-cell recordings from acutely prepared brain slices from wild type C57BL/6 mice; from tissue; host or cells: acute coronal hippocampal slices from P14-P20 wild-type C57BL/6 mice: CA1 pyramidal neurons
T1 sequence (Q704Y3 whole entry): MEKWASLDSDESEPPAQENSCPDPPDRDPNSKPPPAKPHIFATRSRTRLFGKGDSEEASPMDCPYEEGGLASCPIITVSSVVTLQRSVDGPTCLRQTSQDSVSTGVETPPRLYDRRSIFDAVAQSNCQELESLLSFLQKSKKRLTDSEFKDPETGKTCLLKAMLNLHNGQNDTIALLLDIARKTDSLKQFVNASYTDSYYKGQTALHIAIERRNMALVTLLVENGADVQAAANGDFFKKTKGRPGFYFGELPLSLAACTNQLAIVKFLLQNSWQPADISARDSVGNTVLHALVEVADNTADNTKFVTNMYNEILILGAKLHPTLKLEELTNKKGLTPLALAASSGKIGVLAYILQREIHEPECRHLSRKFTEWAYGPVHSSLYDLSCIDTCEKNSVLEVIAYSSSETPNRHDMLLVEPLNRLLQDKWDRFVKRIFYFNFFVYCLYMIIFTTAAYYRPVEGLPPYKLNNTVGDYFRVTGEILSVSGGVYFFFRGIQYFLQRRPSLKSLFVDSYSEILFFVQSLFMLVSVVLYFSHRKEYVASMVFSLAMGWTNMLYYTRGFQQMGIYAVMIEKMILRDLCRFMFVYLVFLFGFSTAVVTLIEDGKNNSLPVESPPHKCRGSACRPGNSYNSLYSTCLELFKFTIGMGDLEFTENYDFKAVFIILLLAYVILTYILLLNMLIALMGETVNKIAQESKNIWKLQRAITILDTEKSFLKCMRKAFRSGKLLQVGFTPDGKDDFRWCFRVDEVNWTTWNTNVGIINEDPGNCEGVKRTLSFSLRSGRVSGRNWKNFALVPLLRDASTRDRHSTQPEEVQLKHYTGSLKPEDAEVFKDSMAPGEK

C=C(C)[C@]12C[C@@H](C)[C@@]34O[C@](Cc5ccccc5)(O[C@@H]1[C@@H]3C=C(COC(=O)Cc1cc(I)c(O)c(OC)c1)C[C@]1(O)C(=O)C(C)=C[C@@H]41)O2 [5′-Iodoresiniferatoxin]
EPSC amplitudes 15-20 minutes post-HFS in 5′-Iodoresiniferatoxin ([1]; 5′-Iodoresiniferatoxin 100 nM bath applied prior to HFS, n=7): 96.2±13.6 % of control values before HFS

CCCCC/C=C\C[C@@H](/C=C/C=C\C/C=C\CCCC(=O)O)OO [12-(S)-HPETE, 12-(S)-Hydroperoxyeicosa-5Z, 8Z, 10E, 14Z-tetraenoic acid]
fEPSP slopes after 10-15 minutes in 12-(S)-HPETE [2]: 99.0±3.5 % of pre-drug control values | EPSC amplitudes 15-20 minutes post-HFS ([1]; HFS after 12-(S)-HPETE 100 nM (occlusion), n=6): 98.7±15.3 % of control values in 12-(S)-HPETE before HFS | average synaptic failures in 12-(S)-HPETE [3]: 89.7±3.0% | EPSC amplitudes after 10-15 minutes in 12-(S)-HPETE in TRPV1−/− mice [4]: 109.0±6.8 % of pre-drug control values | EPSC amplitudes after 10-15 minutes in 12-(S)-HPETE ([5]; 12-(S)-HPETE 100 nM bath-applied, n=8): 40.6±11.7 % of pre-drug control values | 12-(S)-HPETE-evoked current in CA1 neuron (TRPV1 channels): induces an inward current

Cc1c(C(=O)NN2CCCCC2)nn(-c2ccc(Cl)cc2Cl)c1-c1ccc(I)cc1 [AM251]
EPSC amplitudes 15-20 minutes post-HFS ([1]; AM251 2 μM bath-applied, n=8): 48.6±5.3 % of control values before HFS | EPSC amplitudes after 10-15 minutes in both WIN 55,212-2 and AM251 ([5]; AM251 2 μM applied before WIN 55,212-2 1 μM, n=5): 101.7±8.9 % of pre-WIN 55,212-2 control values

O=C(O)CN(CC(=O)O)c1ccccc1OCCOc1ccccc1N(CC(=O)O)CC(=O)O [BAPTA, 1,2-bis(o-aminophenoxy)ethane-N,N,N′,N′-tetraacetic acid]
cells recorded from with intracellular BAPTA that had LTD ([1]; patch pipette solution containing 25-40 mM BAPTA): 6 of 14 | EPSC amplitudes 15-20 minutes post-HFS with intracellular BAPTA ([1]; patch pipette solution containing 25-40 mM BAPTA, n=14): 90.5±8.5 % of control values before HFS

N[C@H](CCCP(=O)(O)O)C(=O)O [D-AP5, D(−)-2-amino-5-phosphonovaleric acid]
EPSC amplitudes 15-20 minutes post-HFS ([1]; D-AP5 50 μM in bath, P<0.001, n=26, LTD not prevented): 62.0±5.3 % of control values before HFS
